Measurements from patent US6527759B1, “Ultrasound assembly for use with light activated drugs” (Ekos Corporation, priority 1995, dated 2003).

What was measured:
[1] = Relative efficiency of bile salts as co-solubilizers for SnEt2 in MCT oil, egg phospholipids and ethanol (Example 6); type: physicochemical; conditions: egg phospholipids, ethanol
Description: (§1) Several emulsions are prepared as described above. In 5 ml glass tubes, medium chain length oil known as MCT oil (Miglyol 801, Hüls America, Piscataway, N.J.) is combined with 10 mg/gm SnEt2 plus excipients as described above. Certain emulsions also included additional excipients in the following concentrations: ethanol at […]; egg phospholipids at 75 mg/gm oil; and sodium cholate at 10 mg/gm oil. After incubating for 30 minutes at 55° C., the tubes stand overnight at room temperature (19°-22° C.). The tubes arc centrifuged to remove bulk precipitates, and supernatants are filtered through 0.45 μm nylon membrane to remove any undissolved drug. Aliquots of filtrate are then diluted in chloroform:isopropyl alcohol (1:1) for spectrophotometric determination of drug concentration (absorbance at 662 nm). Reference standards are prepared with known concentrations of SnEt2 in the same solvent.
This example illustrates relative efficiencies of several bile salts. Mixtures of MCT oil, egg phospholipids, ethanol, and SnEt2 are incubated with different bile salts, all at 4.6 mM^1, under the same conditions described above. […] Cholic acid lacks solubilizing action in the oil.

[2] = Drug solubility in oil: SnEt2 in MCT oil with excipient combinations (Example 5); type: physicochemical; conditions: emulsion with excipients vs MCT oil alone
Description: as §1
The concentration of SnEt2 in each of the emulsions is illustrated in Table 2. As illustrated, the concentration of SnEt2 in the emulsion can be more than ten times the concentration in MCT oil alone.

SnEt2 Concentration ([1]; bile compound: Cholic acid, 4.6 mM): 1.33 mg/gm oil
SnEt2 Concentration ([1]; bile compound: Na Tauracholate, 4.6 mM): 1.13 mg/gm oil
SnEt2 Concentration ([1]; bile compound: Na cholate, 4.6 mM): 3.70 mg/gm oil
SnEt2 Concentration ([1]; bile compound: Na deoxycholate, 4.6 mM): 2.31 mg/gm oil
SnEt2 Concentration ([1]; bile compound: Na glycocholate, 4.6 mM): 2.22 mg/gm oil
SnEt2 Concentration ([1]; bile compound: None): 1.26 mg/gm oil
concentration of SnEt2 in the emulsion relative to the concentration in MCT oil alone [2]: more than ten
Structure (SMILES): CCOC(=O)C1=Cc2c3nc(cc4nc(cc5[n-]c(cc6[n-]c2c(C)c6CC)c(C)c5CC)C(C)=C4CC)[C@@H](C)[C@]13CC.[Cl-].[Cl-].[Sn] (racemic) [SnEt2, tin ethyl etiopurpurin]
